Laboratory results taken from article PMC11302729, “Repurposing Hsp90 inhibitors as antimicrobials targeting two-component systems identifies compounds leading to loss of bacterial membrane integrity” (Microbiology Spectrum, 2024).
≈ marks a conversion by molar mass, not a printed value. Where “and” joins values, the source holds several entries; their conditions need not be identical. Equal values may be shown once. Read-outs that look alike come from different tables or passages of the source. No end group written: not given here.

What was measured:
Type in all cases: cell-based
[1] = tested on: Pseudomonas aeruginosa ATCC 27853; test: MIC (microdilution) against P. aeruginosa; conditions: Pseudomonas aeruginosa
Procedure: (§1) Staphylococcus aureus str. Newman, Enterococcus faecalis vanA (strain E0155), Enterococcus faecium vanA (strain E1654), Escherichia coli ATCC 25922, Escherichia coli D21f2 with a truncated LPS barrier, Escherichia coli JW5503 (ΔtolC) ([49]), Pseudomonas aeruginosa ATCC 27853, and Pasteurella haemolytica ATCC 29701 were grown in Mueller-Hinton Broth (MHB) (Oxoid, Basingstoke, UK) and incubated at 37°C.
(§2) The minimal inhibitory concentration was determined using the microdilution method following the guidelines of the European Committee on Antimicrobial Susceptibility Testing ([50]). Briefly, a series of twofold dilutions in MHB of each compound were made in a 96-well plate, with final concentrations ranging from 50 to 0.39 µg/mL in 100 µL final volume per well. A hundred microliters of 1:100 dilution of an overnight culture of the correspondent bacteria in MHB was added to each well. Plates were incubated for 18 hours at 37°C. MIC was recorded as the lowest concentration where no growth was detected as measured by optical density at 600 nm (OD600) using Spectramax M5 (Molecular Devices LLC, San Jose, CA, USA). […] Wells containing bacteria with or without 1% DMSO and medium alone were included as controls in every plate.

[2] = tested on: HEK293 cells; test: in vitro; conditions: LC50/MIC (HEK293 / S. aureus)
Procedure: (§3) HEK293 cells and the human hepatocellular carcinoma cells (HepG2) were routinely cultured in 75-cm^2 culture flasks (Corning Incorporated) on high-glucose Dulbecco’s modified Eagle medium (DMEM) containing glutaMax and phenol red (Gibco) supplemented with 1% penicillin/streptomycin (Gibco) and 10% fetal bovine serum (FBS) (Gibco). Cells were maintained at 37°C and 5% CO2.
(§4) Cytotoxicity assays with HEK293 and HepG2 cells were performed in 96-well plates seeded with 5 × 10^4 cells/well and incubated for 24 hours to reach 80%–90% confluency. Exterior wells were filled with only medium to prevent evaporation. Culture medium was removed from the cells, and 100 µL of exposure medium [high-glucose DMEM without phenol red (Gibco)] was added to avoid a potential interaction between FBS components or antibiotics and tested compounds. A twofold dilution series of compounds in exposure medium (range 100–3.2 μg/mL) was made in a separate 96-well plate, and 100 µL of each of these dilutions was added to the assay plates for 24 hours at 37°C in the presence of 5% CO2. Control wells contained cells with DMEM, DMEM + 1% DMSO (vehicle control), or DMEM + 20% DMSO. Wells without cells were also included as negative control. After exposure, the medium was replaced with 100 µL 10% Alamar Blue (Invitrogen) in exposure medium. After 45 min incubation at 37°C and 5% CO2, fluorescence was measured on a Spectramax M5 plate reader at λex = 541 nm, λem = 590 nm. Cell viability compared with the vehicle control was calculated, and inhibition curves for each compound were fitted (non-linear curve fit, four variables, bottom constrained = 0) in Prism 9 (GraphPad Software, San Diego, USA).

[3] = tested on: Enterococcus faecalis vanA (strain E0155); test: MIC (microdilution) against E. faecalis; conditions: Enterococcus faecalis, read-out: MIC E. faecalis
Procedure: as §1, §2

[4] = tested on: Escherichia coli ATCC 25922; test: MIC (microdilution) against E. coli; conditions: Escherichia coli
Procedure: as §1, §2

[5] = tested on: S. aureus str. Newman; test: Membrane permeability using SYTOX-Green, flow cytometry; conditions: for % FITC stained bacteria 0.5 xMIC: 0.5× MIC; for % FITC stained bacteria 1 xMIC: 1× MIC; for Membrane damage: if considered to cause membrane damage to S. aureus
Procedure: S. aureus str. Newman was grown to exponential phase (OD600 = 0.4) in MHB media. […] Nisin (Sigma-Aldrich) and novobiocin (Sigma-Aldrich) were used as positive and negative controls for membrane permeabilization, and stained and unstained untreated controls were also included in each assay. After exposure, samples were centrifuged at 4,000 r.p.m. for 5 min and resuspended in PBS. Bacteria were dyed by adding the fluorescent nuclear stain SYTOX Green (Molecular Probes, Invitrogen) to a final concentration of 0.5 µM and incubating for 5 min in the dark. Samples were centrifuged again and resuspended with PBS to remove unbound stain. Three hundred microliters of each sample was transferred to a clean well in a 96-well clear-bottom plate (Corning Incorporated). Fluorescence was measured in CytoFLEX flow cytometer (Beckman Coulter, Brea, CA, USA) using the green (FITC) channel with the excitation wavelength at 488 nm. Overlay histograms were created with CytExpert Software (Beckman Coulter, Brea, CA, USA).

[6] = tested on: Pasteurella haemolytica ATCC 29701; test: MIC (microdilution) against P. haemolytica; conditions: Mannheimia haemolytica, ATCC29701, read-out: MIC P. haemolytica, Table ST1
Procedure: as §1, §2

[7] = tested on: Escherichia coli D21f2 with a truncated LPS barrier; test: MIC (microdilution) against E. coli D21f2; conditions: read-out: MIC E coli D21f2
Text: (§5) We also tested the inhibitory activity of compounds in two different E. coli mutants: (i) E. coli JW5503 that lacks TolC efflux pumps and (ii) E. coli D21f2 that has a defective LPS inner core increasing permeability of the outer membrane. E. coli D21f2 has a slightly higher susceptibility to DPP compounds than E. coli ATCC25922.
as §1, §2

[8] = tested on: Enterococcus faecium vanA (strain E1654); test: MIC (microdilution) against E. faecium; conditions: Enterococcus faecium, read-out: MIC E. faecium
Procedure: as §1, §2

[9] = tested on: Staphylococcus aureus str. Newman; test: Minimal inhibitory concentration (microdilution) against S. aureus; conditions: for MIC S. aureus: Table ST3
Procedure: as §1, §2

[10] = tested on: Escherichia coli JW5503 (ΔtolC); test: MIC (microdilution) against E. coli JW5503; conditions: Escherichia coli, read-out: MIC E. coli JW5503
Text: as §5, §1, §2

[11] = in vitro; conditions: human
Procedure: as §3, §4

[12] = ATCC27853, Table ST1, read-out: MIC P. aeruginosa
[13] = ATCC25922, Table ST1, read-out: MIC E. coli
[14] = Staphylococcus aureus, NEWMAN, Fig 2
[15] = Staphylococcus aureus, NEWMAN, Fig 2, value in parentheses
[16] = Table ST3, value in parentheses

| Compound | MIC [1, 12] [µg/mL] | Selectivity Index [2] | MIC [3] [µg/mL] | MIC [4, 13] [µg/mL] | % FITC stained bacteria 0.5 xMIC ([5]; 5 min exposure) [%] | % FITC stained bacteria 1 xMIC ([5]; 5 min exposure) [%] | % FITC stained bacteria 2 xMIC ([5]; 2× MIC, 5 min exposure) [%] | Membrane damage [5] | MIC [6] [µg/mL] | MIC [8] [µg/mL] | MIC [9, 14] [µg/mL] | MIC [9, 15] [µM] | MIC S. aureus [9] [µg/mL] | MIC [9, 16] [µM] | MIC [10] [µg/mL] | CC50 at 24 h [11] | also measured |
| --- | --- | --- | --- | --- | --- | --- | --- | --- | --- | --- | --- | --- | --- | --- | --- | --- | --- |
| COc1ccc(-c2[nH]nc(C)c2-c2ccc(Cl)cc2)c(O)c1 [DPP-10] | > 250 | 0.93 | 250 (≈ 794 µM) | > 250 | 28.57 | 37.28 | 40.99 | YES | 62.5 (≈ 199 µM) | 250 (≈ 794 µM) | 25 | 79.4 | 25 (≈ 79.4 µM) | 79.37 | 6.25 (≈ 19.9 µM) | – | MIC [7]: 250 µg/mL (≈ 794 µM) |
| COc1ccccc1-c1c(C(F)(F)F)n[nH]c1-c1ccc(O)cc1O [DPP-16] | > 250 | 0.65 | 50 (≈ 143 µM) | > 250 | – | – | – | – | 50 (≈ 143 µM) | 50 (≈ 143 µM) | 25 | 71.4 | 25 (≈ 71.4 µM) | 71.43 | 3.13 (≈ 8.94 µM) | 16.4 µg/mL and 46.7 µM | – |
| CO[C@@H]1[C@@H](OC(N)=O)[C@@H](O)[C@H](Oc2ccc3c(O)c(NC(=O)c4ccc(O)c(CC=C(C)C)c4)c(=O)oc3c2C)OC1(C)C [Novobiocin, reference compound] | – | – | – | – | 8.28 | 12.62 | 13.17 | – | – | – | – | – | – | – | – | – | Effect on membrane integrity ([5]; 2× MIC, 5 min exposure): no effect on membrane integrity |
| Nisin: positive control for membrane permeabilization (ITSISLCTPGCKTGALMGCNMKTATCHCSIHVSK; ends and bridges not checked; also: lantibiotic nisin A: dehydrated residues and lanthionine rings not given here; UniProt P13068 24-57, looked up) [reference compound] | – | – | – | – | 16.37 | 53.32 | 59.41 | – | – | – | – | – | – | – | – | – | – |
| COc1ccc(-c2[nH]nc(C(F)(F)F)c2-c2ccccc2OC)c(O)c1 [DPP-17] | – | 0.50 | – | – | – | – | – | – | 50 (≈ 137 µM) | > 250 | 25 | 68.5 | 25 (≈ 68.6 µM) | 68.49 | 6.25 (≈ 17.2 µM) | 12.6 µg/mL and 34.5 µM | MIC ([1]; ATCC27853, read-out: MIC P. aeruginosa): > 250 µg/mL; MIC ([3]; 18 h): > 250 µg/mL; MIC ([4]; ATCC25922, read-out: MIC E. coli): > 250 µg/mL |
| Cc1n[nH]c(-c2ccc(O)cc2O)c1-c1ccc(Cl)cc1 [DPP-9] | > 250 | 0.49 | 25 (≈ 83.1 µM) | > 250 | 38.22 | 41.34 | 43.78 | YES | 25 (≈ 83.1 µM) | 25 (≈ 83.1 µM) | 25 | 83.3 | 25 (≈ 83.1 µM) | 83.33 | 12.5 (≈ 41.6 µM) | – | MIC [7]: 50 µg/mL (≈ 166 µM) |
| Oc1ccc(-c2[nH]nc(C(F)(F)F)c2-c2ccccc2)c(O)c1 [DPP-1] | > 250 | 0.65 | 12.5 (≈ 39 µM) | > 250 | 30.46 | 39.72 | 46.63 | YES | 25 (≈ 78.1 µM) | 12.5 (≈ 39 µM) | 6.25 | 19.5 | 6.25 (≈ 19.5 µM) | 19.53 | 1.56 (≈ 4.87 µM) | – | – |
| COc1ccc(-c2[nH]nc(C(F)(F)F)c2-c2ccc(OC)c(OC)c2)c(O)c1 [DPP-19] | > 250 | 0.55 | 50 (≈ 127 µM) | > 250 | – | – | – | – | > 250 | 50 (≈ 127 µM) | 25 | 63.3 | 25 (≈ 63.4 µM) | 63.29 | 12.5 (≈ 31.7 µM) | 13.7 µg/mL and 34.6 µM | – |
| COc1ccc(-c2c(C(F)(F)F)n[nH]c2-c2ccc(O)cc2O)cc1OC [DPP-18] | > 250 | 0.45 | 50 (≈ 131 µM) | > 250 | – | – | – | – | > 250 | 50 (≈ 131 µM) | 50 | 132 | 50 (≈ 131 µM) | 131.58 | 6.25 (≈ 16.4 µM) | 22.8 µg/mL and 60 µM | – |
